± gives the expanded uncertainty stated by the source.

For this series the following is noted: Crystal; visual observation.

Turning to `CCn1cc[n+](C)c1.Cc1ccc(S(=O)(=O)[O-])cc1` [1-ethyl-3-methylimidazolium 4-methylbenzenesulfonate], the Normal melting temperature turned out to be 54.2 ± 0.7 °C.
For the compound `CCn1cc[n+](C)c1.[Br-]` [1-ethyl-3-methylimidazolium bromide], the Normal melting temperature worked out at 77.1 ± 0.7 °C.

Source of the values: the NIST ThermoML archive (doi:10.1016/j.fluid.2018.11.001).
